Measured values from the NIST ThermoML archive (doi:10.1021/je900691n).
Numbers after ± are expanded uncertainties.

Assay: xn = mol fraction of the nth substance listed
Settings: Liquid, Pycnometric method

COC(=O)OC [dimethyl carbonate] + O=C=O
mass density [kg/m3]
Settings | 332.85 K | 337.45 K
8220 kPa, x1 = 0.0242 | – | 212 ± 4
8340 kPa, x1 = 0.0242 | – | 217 ± 4
8440 kPa, x1 = 0.0242 | – | 222 ± 4
8530 kPa, x1 = 0.0242 | – | 226 ± 4
8640 kPa, x1 = 0.0242 | – | 231 ± 4
8730 kPa, x1 = 0.0242 | – | 236 ± 4
8820 kPa, x1 = 0.0242 | – | 242 ± 4
8920 kPa, x1 = 0.0242 | – | 247 ± 4
9030 kPa, x1 = 0.0242 | – | 253 ± 4
9130 kPa, x1 = 0.0242 | – | 259 ± 4
9240 kPa, x1 = 0.0242 | – | 266 ± 4
9350 kPa, x1 = 0.0242 | – | 272 ± 4
9460 kPa, x1 = 0.0242 | – | 279 ± 4
9570 kPa, x1 = 0.0242 | – | 287 ± 4
9690 kPa, x1 = 0.0242 | – | 295 ± 4
9760 kPa, x1 = 0.1484 | – | 790 ± 4
9810 kPa, x1 = 0.0242 | – | 304 ± 4
9820 kPa, x1 = 0.118 | 773 ± 4 | –
9910 kPa, x1 = 0.0242 | 353 ± 4 | –
9920 kPa, x1 = 0.1484 | 826 ± 4 | –
9930 kPa, x1 = 0.0242 | – | 311 ± 4
9960 kPa, x1 = 0.086 | 682 ± 4 | –
10010 kPa, x1 = 0.0242 | 362 ± 4 | –
10030 kPa, x1 = 0.086 | 686 ± 4 | –
10040 kPa, x1 = 0.118 | 780 ± 4 | –
10060 kPa, x1 = 0.1484 | – | 795 ± 4
10090 kPa, x1 = 0.0481 | 484 ± 4 | –
10110 kPa, x1 = 0.0242 | 371 ± 4 | –
10180 kPa, x1 = 0.118 | – | 737 ± 4
10200 kPa, x1 = 0.0242 | 381 ± 4 | –
10200 kPa, x1 = 0.086 | 695 ± 4 | –
10250 kPa, x1 = 0.0481 | 506 ± 4 | –
10290 kPa, x1 = 0.1484 | 832 ± 4 | –
10300 kPa, x1 = 0.0242 | 391 ± 4 | –
10350 kPa, x1 = 0.0481 | 517 ± 4 | –
10350 kPa, x1 = 0.118 | 788 ± 4 | 743 ± 4
10380 kPa, x1 = 0.0242 | 399 ± 4 | –
10380 kPa, x1 = 0.086 | 704 ± 4 | –
10420 kPa, x1 = 0.0481 | 525 ± 4 | –
10450 kPa, x1 = 0.0481 | – | 450 ± 4
10450 kPa, x1 = 0.086 | – | 631 ± 4
10480 kPa, x1 = 0.086 | – | 634 ± 4
10490 kPa, x1 = 0.0242 | 410 ± 4 | –
10520 kPa, x1 = 0.0481 | 538 ± 4 | –
10530 kPa, x1 = 0.086 | 711 ± 4 | –
10530 kPa, x1 = 0.1484 | – | 804 ± 4
10550 kPa, x1 = 0.086 | – | 640 ± 4
10580 kPa, x1 = 0.0242 | 417 ± 4 | –
10620 kPa, x1 = 0.118 | – | 751 ± 4
10630 kPa, x1 = 0.086 | – | 644 ± 4
10640 kPa, x1 = 0.0481 | 550 ± 4 | –
10670 kPa, x1 = 0.0481 | – | 470 ± 4
10720 kPa, x1 = 0.1484 | 839 ± 4 | –
10740 kPa, x1 = 0.0481 | 560 ± 4 | –
10740 kPa, x1 = 0.118 | 796 ± 4 | –
10780 kPa, x1 = 0.0481 | – | 481 ± 4
10800 kPa, x1 = 0.086 | – | 654 ± 4
10820 kPa, x1 = 0.1484 | – | 809 ± 4
10860 kPa, x1 = 0.086 | 724 ± 4 | –
10890 kPa, x1 = 0.0481 | 574 ± 4 | 492 ± 4
10940 kPa, x1 = 0.118 | – | 760 ± 4
11010 kPa, x1 = 0.0481 | – | 504 ± 4
11060 kPa, x1 = 0.0481 | 588 ± 4 | –
11080 kPa, x1 = 0.086 | – | 669 ± 4
11160 kPa, x1 = 0.0481 | – | 517 ± 4
11200 kPa, x1 = 0.118 | 805 ± 4 | –
11230 kPa, x1 = 0.1484 | – | 816 ± 4
11250 kPa, x1 = 0.1484 | 846 ± 4 | –
11260 kPa, x1 = 0.0481 | 603 ± 4 | –
11270 kPa, x1 = 0.086 | 738 ± 4 | –
11290 kPa, x1 = 0.118 | – | 769 ± 4
11310 kPa, x1 = 0.0481 | – | 530 ± 4
11380 kPa, x1 = 0.086 | – | 684 ± 4
11480 kPa, x1 = 0.0481 | – | 543 ± 4
11500 kPa, x1 = 0.0481 | 619 ± 4 | –
11650 kPa, x1 = 0.0481 | – | 558 ± 4
11700 kPa, x1 = 0.118 | – | 779 ± 4
11720 kPa, x1 = 0.1484 | – | 823 ± 4
11730 kPa, x1 = 0.1484 | 851 ± 4 | –
11740 kPa, x1 = 0.118 | 815 ± 4 | –
11750 kPa, x1 = 0.086 | 751 ± 4 | –
11760 kPa, x1 = 0.0481 | 636 ± 4 | –
11780 kPa, x1 = 0.086 | – | 700 ± 4
11850 kPa, x1 = 0.0481 | – | 573 ± 4
11990 kPa, x1 = 0.0481 | 650 ± 4 | –
12100 kPa, x1 = 0.0481 | – | 589 ± 4
12160 kPa, x1 = 0.118 | 822 ± 4 | –
12190 kPa, x1 = 0.118 | – | 789 ± 4
12240 kPa, x1 = 0.1484 | – | 830 ± 4
12260 kPa, x1 = 0.1484 | 858 ± 4 | –
12270 kPa, x1 = 0.086 | 765 ± 4 | 716 ± 4
12280 kPa, x1 = 0.0481 | 663 ± 4 | –
12360 kPa, x1 = 0.0481 | – | 607 ± 4
12630 kPa, x1 = 0.0481 | 678 ± 4 | –
12660 kPa, x1 = 0.118 | – | 798 ± 4
12700 kPa, x1 = 0.118 | 830 ± 4 | –
12740 kPa, x1 = 0.1484 | – | 838 ± 4
12750 kPa, x1 = 0.086 | 775 ± 4 | –
12750 kPa, x1 = 0.1484 | 863 ± 4 | –
12800 kPa, x1 = 0.086 | – | 732 ± 4
13170 kPa, x1 = 0.086 | – | 742 ± 4
13190 kPa, x1 = 0.118 | 837 ± 4 | –
13220 kPa, x1 = 0.118 | – | 807 ± 4
13230 kPa, x1 = 0.086 | 784 ± 4 | –
13240 kPa, x1 = 0.1484 | – | 843 ± 4
13270 kPa, x1 = 0.1484 | 869 ± 4 | –
13640 kPa, x1 = 0.118 | – | 814 ± 4
13700 kPa, x1 = 0.118 | 843 ± 4 | –
13730 kPa, x1 = 0.086 | – | 755 ± 4
13730 kPa, x1 = 0.1484 | – | 849 ± 4
13760 kPa, x1 = 0.086 | 794 ± 4 | –
13800 kPa, x1 = 0.1484 | 874 ± 4 | –
14170 kPa, x1 = 0.118 | – | 821 ± 4
14220 kPa, x1 = 0.086 | – | 766 ± 4
14230 kPa, x1 = 0.118 | 850 ± 4 | –
14270 kPa, x1 = 0.1484 | – | 855 ± 4
14290 kPa, x1 = 0.086 | 803 ± 4 | –
14520 kPa, x1 = 0.1484 | 881 ± 4 | –
14710 kPa, x1 = 0.086 | – | 775 ± 4
14720 kPa, x1 = 0.086 | 810 ± 4 | –
14730 kPa, x1 = 0.118 | – | 829 ± 4
14760 kPa, x1 = 0.118 | 856 ± 4 | –
14780 kPa, x1 = 0.1484 | – | 861 ± 4
15020 kPa, x1 = 0.1484 | 885 ± 4 | –
15150 kPa, x1 = 0.086 | – | 783 ± 4
15280 kPa, x1 = 0.118 | – | 836 ± 4
15290 kPa, x1 = 0.118 | 861 ± 4 | –
15330 kPa, x1 = 0.086 | 819 ± 4 | –
15350 kPa, x1 = 0.1484 | – | 866 ± 4
15460 kPa, x1 = 0.1484 | 889 ± 4 | –
15740 kPa, x1 = 0.086 | – | 792 ± 4
15740 kPa, x1 = 0.118 | 866 ± 4 | –
15760 kPa, x1 = 0.086 | 825 ± 4 | –
15770 kPa, x1 = 0.118 | – | 842 ± 4
15800 kPa, x1 = 0.1484 | – | 870 ± 4
15940 kPa, x1 = 0.1484 | 893 ± 4 | –
16200 kPa, x1 = 0.086 | 831 ± 4 | –
16250 kPa, x1 = 0.086 | – | 801 ± 4
16370 kPa, x1 = 0.118 | 872 ± 4 | –
16400 kPa, x1 = 0.118 | – | 849 ± 4
16600 kPa, x1 = 0.1484 | – | 881 ± 4
16670 kPa, x1 = 0.1484 | 899 ± 4 | –
